{
  "source": "patent US20080227131A1",
  "about": "“Signalling Assay and Cell Line” (GE HEALTHCARE UK LIMITED, priority 2005, published 2008)",
  "key": {"[1]": {"tested_on": "EGFP-MAPK14 fusion protein", "assay": "EGFP-MAPK14 fusion protein translocation assay for activation of MAPK14 (N:C ratio) in stable SW1353 cells", "format": "cell-based, human", "method": "During assay preparation and throughout the assay, background stress response was kept to a minimum; microplates, cells and solutions were maintained at 37° C., 5% CO2, and 95% relative humidity. All inhibitors and activators were added to cells in complete medium.\n50 μl of the prepared test activator in complete medium and control compounds were added and incubated at 37° C., 5% CO2, and 95% relative humidity. For fixed cell assays, 150 μl 10% (v/v) formalin (4% formaldehyde) was added at room temperature for 20 min. Cells were washed twice with PBS and nuclei were stained with Hoechst (10 μM) in PBS prior to imaging."}, "[2]": {"tested_on": "phospho-(Thr180/Tyr182)-p38(MAPK14)", "assay": "Anti-phospho-p38 immunofluorescence assay in SW1353 cells", "format": "cell-based, human", "conditions": "30 min treatment, fixed; n=8; read-out: EC50, immunofluorescence assay (Alexa647-anti-phospho-p38 signal)", "method": "The temporal and biological response of the EGFP-MAPK14 assay was validated through co-analysis with a recognised assay for p38 (MAPK14) activation—an immunofluorescence assay targeting phospho-(Thr180/Tyr182)-p38(MAPK14). […] Cells were then washed (1% goat serum, 0.1% Tween in PBS), permeabilized (0.5% Triton X in wash buffer) for 15 minutes at room temperature and washed again. 50 μl of rabbit anti-phospho-p38 antibody at 1:200 (Zymed Laboratories, San Francisco, USA) was added and incubated for 1 hr at room temperature prior to two washes and the addition of 50 μl of goat-anti rabbit Alexa647 antibody (Molecular Probes) at 1:200 and incubation for 1 hr at room temperature. After 2 washes, cells were imaged in PBS to detect Hoechst, EGFP-MAPK14 and Alexa647 on an IN Cell Analyzer 1000 instrument."}},
  "data": [
    {"compound": "COc1ccc(C[C@H]2NC[C@H](O)[C@H]2OC(C)=O)cc1", "note": "[anisomycin]", "values": [
      {"measurement": "Nuclear accumulation of EGFP-MAPK14 fusion protein", "setting": "[1]; live cells, 300 nM for 15 mins", "result": "clearly demonstrate significant nuclear accumulation"}
    ]},
    {"compound": "OC[C@@H](O)[C@@H](O)[C@H](O)[C@@H](O)CO", "note": "[sorbitol]", "values": [
      {"measurement": "Duration of stimulation after initial exposure", "setting": "[1]; live cells, 0.4 M", "result": "at least 90 minutes"},
      {"measurement": "Nuclear accumulation of EGFP-MAPK14 fusion protein", "setting": "[1]; live cells, 0.4 M for 15 mins", "result": "clearly demonstrate nuclear accumulation"}
    ]},
    {"compound": "IL-1β", "values": [
      {"measurement": "EC50", "setting": "[2]", "result": 7.82, "unit": "pM"},
      {"measurement": "EC80", "setting": "[1]; concentration used as activator in the inhibitor assay", "result": 12, "unit": "pM"},
      {"measurement": "Translocation of EGFP-MAPK14 signal from cytoplasm to nucleus", "setting": "[1]; fixed cell assay, 316 pM for 30 minutes (FIG. 19)", "result": "clear translocation"},
      {"measurement": "Translocation of EGFP-MAPK14 signal from cytoplasm to nucleus", "setting": "[1]; living cells, 12 pM", "result": "clear translocation"}
    ]}
  ]
}
